Source: patent US20250009750A1, “METHODS OF TREATING DISORDERS ASSOCIATED WITH EYA OVEREXPRESSION AND MUTATIONS” (The Board of Regents of the University of Texas System, priority 2023, published 2025)

What was measured:
[1] = molecular target: T1, EYA4 tyrosine phosphatase (Homo sapiens, UniProt O95677); test: Malachite green phosphatase assay, full length EYA4, tyrosine phosphatase activity; type: biochemical; conditions: increasing amounts of inhibitor
T1 construct: GFP (pEGFP-C1) (N, cleaved yes); made in house; host or cells: Expi293 mammalian suspension cells
T1 sequence (O95677 1-639): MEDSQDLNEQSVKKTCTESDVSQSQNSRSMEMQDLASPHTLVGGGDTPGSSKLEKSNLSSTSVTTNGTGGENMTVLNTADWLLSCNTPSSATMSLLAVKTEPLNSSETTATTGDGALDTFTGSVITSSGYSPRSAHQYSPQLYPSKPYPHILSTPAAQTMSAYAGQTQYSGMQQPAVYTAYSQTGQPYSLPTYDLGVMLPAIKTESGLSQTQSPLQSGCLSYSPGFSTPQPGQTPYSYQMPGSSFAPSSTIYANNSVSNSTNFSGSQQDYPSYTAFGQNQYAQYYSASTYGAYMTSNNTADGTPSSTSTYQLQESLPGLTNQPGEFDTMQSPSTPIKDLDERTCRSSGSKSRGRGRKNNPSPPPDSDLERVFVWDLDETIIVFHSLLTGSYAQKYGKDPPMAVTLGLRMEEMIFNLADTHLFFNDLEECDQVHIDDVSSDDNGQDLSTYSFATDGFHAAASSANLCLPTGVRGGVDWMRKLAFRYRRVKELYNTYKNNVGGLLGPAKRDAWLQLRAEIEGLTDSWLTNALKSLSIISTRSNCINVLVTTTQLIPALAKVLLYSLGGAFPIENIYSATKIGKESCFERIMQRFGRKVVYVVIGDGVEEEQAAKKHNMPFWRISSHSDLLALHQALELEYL
Description: (§1) To measure phosphatase activity, increasing concentrations of EYA4 (0-200 nM, alone or pre-incubated with ssDNA) were incubated in the presence of 400 nM potential substrates (peptides sourced from Genscript, see list and sequence in figures) in 50 μL of reaction buffer A ([…] pH 6, 2 mM MgCl2, 50 μM DTT) for 1 h at 37° C. At the end of the first incubation, the reaction mix containing malachite green was added to phosphatase or ATPase reactions, and the mixture was further incubated for 30 minutes at 37° C. Plates were read at 620 nm in a plate reader. The quantity of […] was inferred from the standard curve prepared as per manufacturer recommendation (Sigma).
[…] proteins have been described to dephosphorylate residue Y142 on the histone variant H2AX and the same activity was recently confirmed in EYA4. Using the synthetic peptide KATQASQE{pTyr} as substrate and a commercial colorimetric malachite green assay (Sigma) that allows to quantify […] released in the buffer by a phosphatase, EYA4's tyrosine phosphatase activity was assayed in the presence of putative inhibitors.
In a malachite green assay, the tyrosine but not serine/threonine phosphatase activity was inhibited by CIDD molecule—149689. […]

[2] = molecular target: T2, EYA4 serine/threonine phosphatase domain (Homo sapiens, UniProt O95677); test: Malachite green phosphatase assay, first 365 residues of EYA4 (serine/threonine phosphatase domain), 53BP1-derived peptide; type: biochemical
T2 construct: the N-terminus domain of EYA4 (residues 1-365), was sub-cloned as a Strep-mCherry-EYA4-His construct; Strep (N); His (C); made in house; host or cells: Sf9 insect cells (baculovirus, pFastBac1)
T2 sequence (O95677 1-365): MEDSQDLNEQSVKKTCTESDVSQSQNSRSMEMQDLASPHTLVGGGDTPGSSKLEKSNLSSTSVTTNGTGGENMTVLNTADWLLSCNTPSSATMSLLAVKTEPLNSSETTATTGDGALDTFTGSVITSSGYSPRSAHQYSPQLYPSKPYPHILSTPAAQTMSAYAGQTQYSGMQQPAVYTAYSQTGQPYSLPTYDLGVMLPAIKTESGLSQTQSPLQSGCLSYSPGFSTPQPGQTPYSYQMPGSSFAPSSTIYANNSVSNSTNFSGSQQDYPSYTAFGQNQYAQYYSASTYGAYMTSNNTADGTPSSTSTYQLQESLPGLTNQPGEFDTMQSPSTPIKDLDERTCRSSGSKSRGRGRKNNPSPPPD
Description: as §1
In a malachite green assay, the tyrosine but not serine/threonine phosphatase activity was inhibited by CIDD molecule—149689. For this assay, full length EYA4 purified near homogeneity as previously described was incubated with increasing amounts of inhibitor, then mixed with either peptide KATQASQE{pTyr} from H2AX or with peptide from RAD51.

[3] = tested on: HRD+ pancreatic cell lines; test: Survival of treated pancreatic cell lines panel; type: cell-based; conditions: at the concentrations tested, FIG. 34C
Source text: Using molecules that target regulators of DNA metabolism mechanisms (repair, recombination, replication), such as kinase and phosphatase can offer a therapeutic window for drug resistant, HRD>0 patients. EYA4 inhibitors have been tested on the pancreatic cell lines panel. […] EYA4i have therapeutic potential for the treatment of pancreatic cancer, including PARPi refractory disease.

| SMILES | EYA4 tyrosine phosphatase activity ([1]; peptide KATQASQE{pTyr} from H2AX) | EYA4 tyrosine phosphatase activity ([1]; peptide from RAD51) | serine/threonine phosphatase activity [2] | growth of pancreatic cells [3] |
| --- | --- | --- | --- | --- |
| Clc1ccc(CNc2nc(NC3CCCC3)nc3ccccc23)cc1Cl [CIDD molecule—149689, N2-cyclopentyl-N4-(3,4-dichlorobenzyl) quinazoline-2,4-diamine] | significantly reduced | significantly reduced | not inhibited |  |
| O=C(NN=Cc1ccc(Sc2ncccn2)o1)c1cccc(Cl)c1 [CSCS14817788384, 3-chloro-N′-{[5-(pyrimidin-2-ylsulfanyl)furan-2-yl]methylidene}benzohydrazide] |  |  |  | does not efficiently inhibit growth |
